Data: patent US11344534B2, “Cholinergic agonism for the treatment of pancreatic cancer” (priority 2017, dated 2022)
Entries after “also recorded” stand apart in the source; their conditions may differ.

Tests used:
PDA patients = assay: Pilot feasibility study of bethanechol in patients with resectable PDA; type: in vivo, human
Method: Our ongoing pilot feasibility study assesses the impact of 1 week of a fixed dose of bethanechol on pharmacodynamics endpoints in resected pancreatic cancer specimens. […] Subjects receive 100 mg of bethanechol by mouth twice daily for 1 week, discontinuing bethanechol 24 hours prior to scheduled surgery. All subjects will be assessed for toxicity while receiving bethanechol, and for 30 days thereafter. The primary endpoint in the pilot study is a change in cell proliferation (Ki-67 index). […] We will compare gene expression profiles and regulatory networks between treated samples with matched controls in our dataset of >200 PDA, RNAseq analysis will be performed.

KC mice = assay: Vagotomized KC mice (KC+VxPP) treated with bethanechol in drinking water; type: in vivo, mouse; details: for pancreatic tumor (PDAC) incidence: bethanechol 400 μg/ml in drinking water, at 20 weeks; for pancreatic CD44 expression: bethanechol vs KC+VxPP controls, immunostaining
Method: Thus, KC mice that underwent vagotomy treated with or without Bethanechol, a broad muscarinic agonist, were compared. Bethanechol treatment (400 μg/ml) started immediately after receiving surgery and continued till 20 weeks.
K-Ras^+/LSL-G12D, p53^+/R172H, and Pdx-1-Cre mice were provided by Dr. Kenneth Olive (Columbia University). M1RKO mice were purchased from the Jackson Laboratory. KC mice and KPC mice were crossed with M1RKO mice. For several experiments, KC mice received pyloroplasty with or without vagotomy at 8 weeks and KC+VxPP mice were treated with or without bethanechol (400 μg/ml) after surgery immediately. They were sacrificed at 20 weeks. In addition, KPC mice were treated with gemcitabine biweekly and with or without bethanechol when the tumor size of 3-5 mm detected using ultrasound. They were sacrificed when the mice were moribund. For liver metastatic experiments, WT type C57/B6 mice received spleen injection and hemi-splenectomy. […] They were sacrificed when the mice were moribund.
Bethanechol treatment (400 μg/ml in drinking water) was started in KC mice at 8 weeks, immediately after the mice received surgery, and continued until 20 weeks of age.
LSL-Kras^+/LSL-G12D, LSL-Trp53^+/R172H, and Pdx1-Cre mice were bred by Dr. Kenneth P. Olive and co-workers. Chrm1KO mice (C57BL/6-Chrm1tm1 Stl/J, (M1RKO) mice^1 were purchased from the Jackson Laboratory. KC mice and KPC mice were crossed with M1RKO mice. In the vagotomy experiments, KC mice received pyloroplasty with or without vagotomy at 8 weeks, and some KC+VxPP mice were treated with bethanechol ([…] in drinking water) immediately after surgery and then sacrificed at 20 weeks. KPC mice in treatment studies were palpated weekly for tumors in the pancreas. Once a tumor was suspected, KPC mice were screened by VEVO 2100—Ultrasound Imaging System (FUJIFILM VisualSonics) for pancreatic cancer. KPC mice were treated with gemcitabine, given by i.p. injection 100 mg/kg biweekly, with or without bethanechol, when a tumor size of 3-5 mm was detected using ultrasound. Mice were sacrificed when the mice were moribund. NOD/SCID mice were implanted with Panc1 cells subcutaneously and sacrificed at 30 days after implantation. For liver metastatic experiments, WT type C57/B6 mice received a splenic injection of labeled Panc02 cells, followed by hemi-splenectomy. The mice were then divided into three groups. […] Mice were then sacrificed when moribund. At necropsy, hepatic metastases that could clearly be identified as tumor nodules on gross inspection were separated. All animal studies and procedures were approved by the IACUC committee at Columbia University. All mice were bred under specific pathogen free conditions. Comparisons were made with age- and sex-matched control animals.
5 μm paraffin embedded or PFA-fixed frozen sections were prepared for immunohistochemistry and immunofluorescence, respectively. For immunofluorescence, slides were washed with 1% Triton X-100 in PBS, rinsed and blocked for 30 min with 2% bovine serum albumin (BSA—Sigma-Aldrich). Primary antibodies and fluorophore-conjugated secondary antibodies were diluted in 2% BSA and incubated over night at 4° C. The following primary antibodies were used; Chrm1 (1:200 Santa Cruz), Ki67 (1:500 Abcam), p-EGFR (1:200 Abcam), and CD44 (1:200 BIO-RAD). For immunohistochemical staining, slides were deparaffinized in xylene and endogenous peroxidase was blocked by incubation with 3% hydrogen peroxide in methanol for visualization using the peroxidase reaction.

[1] = test system: human PDAC cell lines (MiaPaca2, Panc1); assay: MTT assay, human PDAC cell lines; type: cell-based
Method: Cell proliferation in each cell line was assessed with a 3-(4,5-dimethylthiazol-2yl)-2,5-diphenyltetrazolium bromide (MTT) assay kit (Sigma) in accordance with the manufacturer's instructions. 3×10^3 cells were grown in 96-well plate to around ˜70% confluent, changed the 0.5% FBS medium, added the drugs respectively and incubated them for further 72 hrs incubation in a typical CO2 incubator (˜20% O2). Treated cells were rinsed twice with PBS, incubated in 10 ll MTT solution for 4 hr at 37° C., and 100 uL DMSO was added to each well. The absorbance of each well was measured at 570 nm using Tilter-Tech 96-well multiscanner (Becton Dickinson, Heidelberg, Germany). The relative number of viable cells compared with the number of cells without drug treatment was expressed as percent cell viability using the following formula:
Cell proliferation in each cell line was assessed with a 3-(4,5-dimethylthiazol-2yl)-2,5-diphenyltetrazolium bromide (MTT) assay kit (Sigma) in accordance with the manufacturer's instructions. 3×10^3 cells were grown in 96-well plate to ˜70% confluency, the media was changed to 0.5% FBS medium, the respective drugs were added, and they were incubated for an additional 72 hours in a CO2 incubator (˜5% CO2). Treated cells were rinsed twice with PBS, incubated in 10 ul MTT (5 mg/ml PBS) solution for 4 hours at 37° C., and 100 uL DMSO was then added to each well. The absorbance of each well was measured at 570 nm using a Tilter-Tech 96-well multiscanner (Becton Dickinson, Heidelberg, Germany). The relative number of viable cells compared with the number of cells without drug treatment was expressed as percent cell viability using the following formula: cell viability (%)=A570 of treated cells/A570 of untreated cells.

[2] = test system: CD44+CD24+EpCAM+ population of Panc1 and BxPC3 cells; assay: Flow cytometry (FACS) of cancer stem cell population; type: cell-based, human; details: for CD44+CD24+EpCAM+ cancer stem cell population (FACS): human pancreatic cancer cells, 72 hours pilocarpine
Method: Panc-1 cells were grown in 6-well plate to around ˜70% confluent, changed the 0.5% FBS medium, added the drugs respectively and incubated them for further 72 hrs incubation in a typical CO2 incubator (˜20% O2). Afterwards, cells were kept on ice in blocking solution (PBS pH 7.2 containing ? 3% bovine serum albumin, 2 mM EDTA) for 20 minutes. Cells were then stained with a PE-conjugated antibody against CD24, a FITC-conjugated antibody against CD44, and an APC-conjugated antibody against CD326 (1:100—in blocking solution) on ice for 30 minutes. The cells were then washed, reconstituted in sorting buffer (PBS pH 7.2 containing 0.5% bovine serum albumin, 2 mM EDTA)+DAPI and analyzed using a BD FACSAria II.
Panc1 and BxPC3 cells were grown in 6-well plate to ˜70% confluency, the media was changed to 0.5% FBS medium, the respective drugs were added, and they were incubated for an additional 72 hrs in a typical CO2 incubator (˜5% CO2). Subsequently, cells were kept on ice in blocking solution (PBS pH 7.2 containing 3% bovine serum albumin, 2 mM EDTA) for 20 minutes. Cells were then stained with a PE-conjugated antibody against CD24, a FITC-conjugated antibody against CD44, and an APC-conjugated antibody against CD326 (1:100 in blocking solution) on ice for 30 minutes. The cells were then washed, reconstituted in sorting buffer (PBS pH 7.2 containing 0.5% bovine serum albumin, 2 mM EDTA)+DAPI and analyzed using a BD FACSAria II.

Chrm1 [3] = assay: qRT-PCR of muscarinic receptor expression, murine PDAC cell lines; type: cell-based, mouse; details: murine PDAC cell lines (Panc02 and K8282), compared to control
CHRM1 [4] = assay: qRT-PCR of muscarinic receptor expression, human PDAC cell lines; type: cell-based; details: human PDAC cell lines (MiaPaca2 and Panc1), compared to control
Panc1 cells = assay: Soft agar assay, human cells; type: cell-based; details: human cancer cells (Panc1)
[5] = vagotomized KC mice, bethanechol treatment

## CC(C[N+](C)(C)C)OC(N)=O (centres unmarked) [bethanechol, 2-[(aminocarbonyl)oxy]-N,N,N-trimethyl-1-propanaminium]
PDA patients; PDA patients, bethanechol 100 mg twice daily for 1 week, preliminary pilot data
  plasma TNFα levels: trend towards lower
PDA patients; bethanechol-treated patients compared to untreated patients
  Ki-67, CD44, pERK and p-EGFR (IHC staining of PDA tissue): might lead to a decrease
PDA patients; plasma of a study patient, pre- vs post-treatment, cytokine antibody array
  other cytokine levels such as ICAM-1 and MIF: possible reductions
KC mice; KC mice following vagotomy, bethanechol in drinking water
  M1R expression: reduced
KC mice; KC+VxPP mice, bethanechol 400 μg/ml in drinking water from 8 to 20 weeks, vs untreated KC+VxPP
  PanIN area: significant reduction; also recorded: reduced
KC mice; KC+VxPP mice, vs untreated KC+VxPP
  pancreatic tumor (PDAC) incidence: reduced; also recorded: inhibits
KC mice; KC+VxPP mice, vs untreated KC+VxPP, listed as Bethanechol
  pancreatic tumor (PDAC) incidence: significant reduction; also recorded: significant decrease
KC mice; KC+VxPP mice
  pancreatic CD44 expression: significant decrease; also recorded: reduced
KC mice; KC+VxPP mice, listed as Bethanechol
  pancreatic CD44 expression: reduced
KC mice; vagotomized KC mice, bethanechol 400 μg/ml, vs KC+VxPP control group
  area of inflammation: significant reduction
KC mice; [5]
  accelerated tumorigenesis / PanIN progression after vagotomy (KC phenotype): ameliorated; also recorded: suppresses; also recorded: restored the normal KC phenotype; also recorded: reduces
  expression of p-EGFR, p-PI3K and p-ERK1/2 (immunohistochemical staining): significantly suppressed
  systemic and splenic levels of TNFα, CD11b+ and F4/80+ pancreatic myeloid cells: suppressed
  tumor-associated macrophages (TAM) increased by vagal denervation: abolished
KC mice; vagotomized KC mice, bethanechol treatment, listed as Bethanechol
  accelerated tumorigenesis / PanIN progression after vagotomy (KC phenotype): abrogate; also recorded: suppressed

## CC[C@@H]1C(=O)OC[C@@H]1Cc1cncn1C [pilocarpine, (3S,4R)-3-ethyl-4-[(3-methylimidazol-4-yl)methyl]oxolan-2-one]
[1]; 72 hours, 0.5% FBS medium
  proliferation (MTT assay): suppressed
[1]; agonist added to antagonist
  increase in proliferation due to muscarinic antagonists: blocked; also recorded: inhibited to some extent
[2]
  CD44+CD24+EpCAM+ cancer stem cell population (FACS): marked suppression; also recorded: reduced; also recorded: Dose dependent decrease
[2]; listed as Pilocarpine
  CD44+CD24+EpCAM+ cancer stem cell population (FACS): remarkable suppression
[2]; pilocarpine at doses of 100-500 rμM, preliminary studies
  suppression of CD44+CD24+EpCAM+ cancer stem cells: > 50%
Chrm1 [3]
  Chrm1 expression: decreased; also recorded: lower
CHRM1 [4]
  Chrm1 expression: decreased; also recorded: lower
Panc1 cells
  colonies / sphere formation in soft agar: significantly fewer
